Assays:
MMP-2 = experiment: Substrate phage display with NGS: relative probability (RP) of P3-P1' tetramer clusters; type: biochemical, human; conditions: for relative probability (RP) of matching tetramer: P3-P1' tetramer matching the MS detected MMP2 cleavage sequence, RP_above_4.5; for normalized RP - MMP2: normalized RP of matching tetramer; for avg_RP: MMP2 - no binning, average relative probability of the tetramer, redundant tetramers averaged out
MMP-9 = experiment: as above; type: biochemical, human; conditions: for normalized RP - MMP9: normalized RP of matching tetramer
[1] = RP of matching tetramer, unique part of MMP2 selectome, RP above KL threshold
[2] = RP of matching tetramer, unique part of MMP2 selectome
[3] = RP of the P3-P1' tetramer, MMP2 substrate phage display/NGS, tetramers of physiologic MEROPS substrates common to MMP2 and MMP9
[4] = RP of the P3-P1' tetramer, MMP9 substrate phage display/NGS, tetramers of physiologic MEROPS substrates common to MMP2 and MMP9
[5] = RP according to MMP2, P3-P1' tetramer of unique physiologic MMP2 substrates from MEROPS
[6] = MMP2, RP of matching P3-P1' tetramer, common set of MMP2-9 selectome, RP above KL threshold
[7] = RP of matching tetramer, common MMP2-9 selectome
[8] = MMP9, RP of matching P3-P1' tetramer, common set of MMP2-9 selectome
[9] = MMP9, RP of the P3-P1' tetramer matching the MS detected cleavage, RP above 4.7, substrate phage display with NGS
[10] = RP of matching tetramer, common MMP2-9 selectome, RP above KL threshold
[11] = RP of the P3-P1' tetramer cluster contained in the hexamer, 200 nM MMP-2, 2 h, 37°C, two rounds of selection
[12] = MMP9, RP of the P3-P1' tetramer contained in the hexamer substrate (substrate phage display, NGS)
[13] = tetramer projected onto MMP-9 cleavage sites determined by Prudova et al. (2010)

Substance: QAQL
- relative probability (RP) of matching tetramer (MMP-2): 6.16
- relative probability (RP) (acc.to MMP2) (MMP-2; [1]): 6.16
- normalized RP - MMP2 (MMP-2; unique part of MMP2 selectome): 0.1687
- relative probability (RP) (acc.to MMP9) (MMP-9; [2]): 0.06
- normalized RP - MMP9 (MMP-9; unique part of MMP2 selectome): 0.001145

Substance: SFGL
- corresponding MMP2 relative probability (RP) (MMP-2; MMP9 tetramers from unique substrates, RP of same tetramer for MMP2): 10.7897
- relative probability (RP) (acc.to MMP2) (MMP-2; [3]): 0.19
- MMP9 relative probability (RP) (MMP-9; MMP9 tetramers from unique substrates, unrounded values): 0.1902
- relative probability (RP) (acc.to MMP9) (MMP-9; [4]): 10.79

Substance: MSAF
- MMP2 relative probability (RP) (MMP-2; MMP2 tetramers from unique substrates, unrounded values): 20.9521
- Relative probability (RP) rank (MMP-2; [5]): 1585
- relative probability (RP) (MMP-2; [5]): 20.95
- corresponding MMP9 relative probability (RP) (MMP-9; MMP2 tetramers from unique substrates, RP of same tetramer for MMP9): 1.271

Substance: LFGL
- relative probability (RP) (acc.to MMP2) (MMP-2; [6]): 12.87
- relative probability (RP) of matching tetramer (MMP-2): 12.87
- relative probability (RP) (acc.to MMP2) (MMP-2; [7]): 12.87
- relative probability (RP) (acc.to MMP9) (MMP-9; [8]): 14.17
- relative probability (RP) (MMP-9; [9]): 14.17
- relative probability (RP) (acc.to MMP9) (MMP-9; [10]): 14.17

Substance: PMAA
- relative probability (RP) (MMP-9; [9]): 16.94

Substance: PQGF
- relative probability (RP) (acc.to MMP2) (MMP-2; [3]): 27.05
- relative probability (RP) (acc.to MMP9) (MMP-9; [4]): 37.1

Substance: SPMAFS
- relative probability (RP) (MMP-2; [11]): 29.2698
- relative probability (RP) (MMP-9; [12]): 45.5118

Substance: PYAI [P3-P1' tetramer cluster]
- relative probability (RP) (MMP-9; tetramer probability in MMP9 set / naive library, 200 nM protease, 2 h, 37°C): 51.7522

Substance: PVAH
- relative probability (RP) (acc.to MMP2) (MMP-2; [7]): 24.82
- relative probability (RP) (MMP-9; [9]): 24.99
- relative probability (RP) (acc.to MMP9) (MMP-9; [10]): 24.99

Substance: LRAV
- relative probability (RP) (acc.to MMP2) (MMP-2; [7]): 11.96
- relative probability (RP) (MMP-9; [9]): 11.9
- relative probability (RP) (acc.to MMP9) (MMP-9; [10]): 11.9

Substance: SKYL
- relative probability (RP) (acc.to MMP2) (MMP-2; [3]): 4.49
- relative probability (RP) (acc.to MMP9) (MMP-9; [4]): 0.25

Substance: PTNL
- relative probability (RP) (acc.to MMP2) (MMP-2; [3]): 31.03
- relative probability (RP) (acc.to MMP9) (MMP-9; [4]): 36.13

Substance: PVPQ [P3-P1' tetramer cluster]
- relative probability (RP) (MMP-9; [13]): 29.84

Substance: TTPSPI
- relative probability (RP) (MMP-2; [11]): 32.5241
- relative probability (RP) (MMP-9; [12]): 43.889

Substance: TMNM
- relative probability (RP) (MMP-9; [9]): 6.67

Substance: PVGI [P3-P1' tetramer cluster]
- relative probability (RP) (MMP-9; [13]): 46.04

Substance: DSPQNL
- relative probability (RP) (MMP-2; [11]): 32.7851
- relative probability (RP) (MMP-9; [12]): 46.8593

Substance: PMAL
- avg_RP (MMP-2): 34.1737
- relative probability (RP) (acc.to MMP2) (MMP-2; [7]): 34.17
- relative probability (RP) (MMP-9; [9]): 48.95
- relative probability (RP) (acc.to MMP9) (MMP-9; [10]): 48.95

Substance: SAAQPL
- relative probability (RP) (MMP-2; [11]): 14.4283
- relative probability (RP) (MMP-9; [12]): 28.189

Substance: PYGL
- avg_RP (MMP-2): 32.9966
- relative probability (RP) (acc.to MMP2) (MMP-2; [3]): 33
- relative probability (RP) (acc.to MMP9) (MMP-9; [4]): 49.41

Substance: AAAA
- relative probability (RP) (MMP-9; RP of the P3-P1' tetramer in MMP-9 substrate phage display/NGS, tetramer annotation of MMP-9 cleavage sites (octamers P4-P4') collected in MEROPS database): 0.34
- Relative probability (RP) rank (MMP-9; rank of the P3-P1' tetramer by RP in MMP-9 substrate phage display/NGS, tetramer annotation of MMP-9 cleavage sites (octamers P4-P4') collected in MEROPS database): 31285

Substance: AAGV
- relative probability (RP) (acc.to MMP2) (MMP-2; [3]): 0.76
- relative probability (RP) (acc.to MMP9) (MMP-9; [4]): 0.05

Substance: PPGE
- relative probability (RP) (acc.to MMP2) (MMP-2; [3]): 0
- relative probability (RP) (acc.to MMP9) (MMP-9; [4]): 0.11

Substance: AMPM
- relative probability (RP) (acc.to MMP2) (MMP-2; [6]): 8.51
- relative probability (RP) of matching tetramer (MMP-2): 8.51
- relative probability (RP) (acc.to MMP2) (MMP-2; [7]): 8.51
- relative probability (RP) (acc.to MMP9) (MMP-9; [8]): 26.95
- relative probability (RP) (MMP-9; [9]): 26.95
- relative probability (RP) (acc.to MMP9) (MMP-9; [10]): 26.95

Substance: PVAIPM
- relative probability (RP) (MMP-2; [11]): 32.4892
- relative probability (RP) (MMP-9; [12]): 44.9732

Substance: IGTY
- relative probability (RP) of matching tetramer (MMP-2): 5.18
- relative probability (RP) (acc.to MMP2) (MMP-2; [1]): 5.18
- normalized RP - MMP2 (MMP-2; unique part of MMP2 selectome): 0.1418
- relative probability (RP) (acc.to MMP9) (MMP-9; [2]): 0.06
- normalized RP - MMP9 (MMP-9; unique part of MMP2 selectome): 0.001145

Substance: PYSI
- relative probability (RP) (acc.to MMP2) (MMP-2; [6]): 23.85
- relative probability (RP) of matching tetramer (MMP-2): 23.85
- relative probability (RP) (acc.to MMP9) (MMP-9; [8]): 45.53

Substance: PQPEGL
- relative probability (RP) (MMP-2; [11]): 29.5031
- relative probability (RP) (MMP-9; [12]): 39.4116

Substance: PLRQIG
- relative probability (RP) (MMP-2; [11]): 11.8624
- relative probability (RP) (MMP-9; [12]): 29.0862

Substance: PMALMD
- relative probability (RP) (MMP-2; [11]): 34.1737
- relative probability (RP) (MMP-9; [12]): 48.9468

Substance: VEPLKF
- relative probability (RP) (MMP-2; [11]): 11.7082
- relative probability (RP) (MMP-9; [12]): 27.4837

Substance: PGPIGW
- relative probability (RP) (MMP-2; [11]): 31.1565
- relative probability (RP) (MMP-9; [12]): 36.9425

Substance: PENF
- relative probability (RP) (acc.to MMP2) (MMP-2; [3]): 16
- relative probability (RP) (acc.to MMP9) (MMP-9; [4]): 20.05
- relative probability (RP) (MMP-9; tetramer annotation of MMP-9 cleavage sites in physiologic substrates from MEROPS): 20.05

Substance: PVEL
- relative probability (RP) (acc.to MMP2) (MMP-2; [3]): 25.47
- relative probability (RP) (acc.to MMP9) (MMP-9; [4]): 35.1

Substance: SLPQ
- relative probability (RP) (acc.to MMP2) (MMP-2; [3]): 0.51
- relative probability (RP) (acc.to MMP9) (MMP-9; [4]): 0.1

Substance: PVGMKG
- relative probability (RP) (MMP-2; [11]): 32.557
- relative probability (RP) (MMP-9; [12]): 44.5811

Substance: PEQL
- relative probability (RP) (acc.to MMP2) (MMP-2; [6]): 12.46
- relative probability (RP) of matching tetramer (MMP-2): 12.46
- relative probability (RP) (acc.to MMP2) (MMP-2; [7]): 12.46
- relative probability (RP) (acc.to MMP9) (MMP-9; [8]): 23.26
- relative probability (RP) (MMP-9; [9]): 23.26
- relative probability (RP) (acc.to MMP9) (MMP-9; [10]): 23.26
